Literature values in patent US9446052B2, “Composition for prevention of nausea or vomiting” (SAMYANG BIOPHARMACEUTICALS CORPORATION, priority 2010, dated 2016).

Details: pH 6-7.5

SMILES: Cc1nccn1CC1CCc2c(c3ccccc3n2C)C1=O (stereo not shown) [ondansetron]
- Solubility in water: not soluble
